From US8524911B2, “3-arylamino pyridine derivatives” (Merck Serono SA, priority 2004, dated 2013)
Counter-ions that a name gives are not always drawn.

Key:
[1] = target: human MEK1 (Homo sapiens, UniProt Q02750); experiment: MEK-1 Enzyme Assay (LANCE-HTRF); assay type: biochemical; conditions: 100 nM MEK1, 15 μM ATP, 300 nM ERK2, two hours; read-out: MEK inhibition
Summary of the method: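 TR-FRET readout of MEK1-catalysed ERK1 phosphorylation; after a 2 h reaction, Eu-anti-PY20 (5 nM) and anti-GST-APC (50 nM) were added in buffer with 50 mM EDTA and 0.05% BSA, then incubated 1 h in the dark.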

[2] = system: Murine colon C26 cells; experiment: Tumor cell proliferation assay (ATP Lite), C26; assay type: cell-based; conditions: Mus musculus, 96 h, 4 days
Procedure: (§1) Assay 2: Tumor Cell Proliferation Assays (ATP Lite)
(§2) Murine colon C26, human melanoma A375 and MeI5 or human pancreatic MiaPaCa-2 cells were plated in 96 well Corning white plates (1500 cells/well for C26, and 2000 cells/well for A375, and MiaPaCa-2) and cultured overnight at 37° C. in 5% CO2. Inhibitors were serially diluted in 100% DMSO and subsequently added to cells to reach a final concentration of 0.25% DMSO. The cells were incubated for 4 days in the presence of test compounds in cell growth media (DMEM with 10% fetal bovine serum, 2 mM glutamine for C26, and MiaPaCa-2, and RPMI with 10% fetal bovine serum, 2 mM glutamine for A375). Cell proliferation was quantitated using the ATP lite cell proliferation kit (Packard). Columns 4-6 show the concentration of compounds required to induce 50% cell death (IC50 in μM) of […]. With “+” meaning 3 μM<IC50≦10 μM and “++” IC50≦3 μM and “n.d.” means not determined. Few compounds were also tested on human melanoma cell MeI5.

[3] = system: human melanoma A375 cells; experiment: Tumor cell proliferation assay (ATP Lite), A375; assay type: cell-based; conditions: A-375, 96 h, 4 days
Summary of the method: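 Cells seeded at 1500/well (C26) or 2000/well (A375, MiaPaCa-2) grew overnight, then were exposed to serially diluted compounds (0.25% DMSO final) for 4 days in serum-containing DMEM or RPMI. Viability read by ATPlite luminescence; IC50 is the concentration giving 50% cell death.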

[4] = system: human pancreatic MiaPaCa-2 cells; experiment: Tumor cell proliferation assay (ATP Lite), MiaPaCa-2; assay type: cell-based; conditions: MIA PaCa-2, 96 h, 4 days
Procedure: as §1, §2

Sequence of human MEK1 (Q02750 whole entry): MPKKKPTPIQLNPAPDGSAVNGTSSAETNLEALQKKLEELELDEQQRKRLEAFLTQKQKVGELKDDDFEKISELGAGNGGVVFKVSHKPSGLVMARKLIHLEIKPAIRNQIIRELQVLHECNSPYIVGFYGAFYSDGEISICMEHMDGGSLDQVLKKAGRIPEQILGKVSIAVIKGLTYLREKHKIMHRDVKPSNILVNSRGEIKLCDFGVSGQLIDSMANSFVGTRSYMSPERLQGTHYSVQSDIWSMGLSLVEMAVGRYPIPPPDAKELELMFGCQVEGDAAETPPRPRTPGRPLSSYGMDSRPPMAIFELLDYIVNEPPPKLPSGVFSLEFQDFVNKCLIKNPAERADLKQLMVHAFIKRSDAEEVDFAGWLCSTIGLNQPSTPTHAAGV

C[C@@H](O)CNC(=O)c1ccncc1Nc1ccc(I)cc1F [Example 48, 3-[(2-fluoro-4-iodophenyl)amino]-N-[(2R)-2-hydroxypropyl]-isonicotinamide]
IC50 [1]: < 1 µM | IC50 [2]: ≤ 3 µM | IC50 [3]: ≤ 3 µM | IC50 [4]: ≤ 3 µM

O=C(NCCCn1ccnc1)c1ccncc1Nc1ccc(I)cc1F [Example 20, 3-[(2-fluoro-4-iodophenyl)amino]-N-[3-(1H-imidazol-1yl)propyl]-isonicotinamide]
IC50 [1]: < 1 µM | IC50 [2]: ≤ 3 µM | IC50 [3]: ≤ 3 µM | IC50 [4]: ≤ 3 µM

O=C(NCCN1CCOCC1)c1ccncc1Nc1ccc(I)cc1F [Example 13, 3-(2-Fluoro-4-iodo-phenylamino)-N-(2-morpholin-4-yl-ethyl)-isonicotinamide]
IC50 [1]: < 1 µM | IC50 [2]: ≤ 3 µM | IC50 [3]: ≤ 3 µM | IC50 [4]: ≤ 3 µM

O=C(NC1CCCC1)c1ccncc1Nc1ccc(I)cc1F [Example 60, N-cyclopentyl-3-[(2-fluoro-4-iodophenyl)amino]isonicotinamide]
IC50 [1]: < 1 µM | IC50 [2]: ≤ 3 µM | IC50 [3]: ≤ 3 µM | IC50 [4]: ≤ 3 µM

NC(=O)c1ccncc1Nc1ccc(I)cc1 [Example 67, 3-(4-iodo-phenylamino)-isonicotinamide]
IC50 [1]: < 1 µM | IC50 [2]: ≤ 3 µM | IC50 [3]: ≤ 3 µM | IC50 [4]: ≤ 3 µM

COCCN(C)C(=O)c1ccncc1Nc1ccc(I)cc1F [Example 24, 3-[(2-fluoro-4-iodophenyl)amino]-N-(2-methoxyethyl)-N-methyl-isonicotinamide]
IC50 [1]: < 1 µM | IC50 [2]: ≤ 3 µM | IC50 [3]: ≤ 3 µM | IC50 [4]: ≤ 3 µM

NC1CCN(C(=O)c2ccncc2Nc2ccc(I)cc2F)CC1 [Example 44, 4-[(4-aminopiperidin-1-yl)carbonyl]-N-(2-fluoro-4-iodophenyl)pyridin-3-amine hydrochloride]
IC50 [1]: < 1 µM | IC50 [2]: 3 to 10 µM | IC50 [3]: ≤ 3 µM | IC50 [4]: 3 to 10 µM

NC(=O)c1ccncc1Nc1ccc(I)cc1F [Example 12, 3-[(2-fluoro-4-iodophenyl)amino]isonicotinamide]
IC50 [1]: < 1 µM | IC50 [2]: ≤ 3 µM | IC50 [3]: ≤ 3 µM | IC50 [4]: ≤ 3 µM

O=C(NOC[C@H](O)CO)c1ccncc1Nc1ccc(I)cc1 [Example 96, N-{[(2R)-2,3-dihydroxypropyl]oxy}-3-(4-iodophenylamino)-isonicotinamide]
IC50 [1]: < 1 µM | IC50 [2]: ≤ 3 µM | IC50 [3]: ≤ 3 µM | IC50 [4]: ≤ 3 µM

O=C(NNc1nccc(C(F)(F)F)n1)c1ccncc1Nc1ccc(I)cc1F [Example 50, 3-[(2-fluoro-4-iodophenyl)amino]-N′-[4-(trifluoromethyl)pyrimidin-2-yl]isonicotinohydrazide]
IC50 [1]: < 1 µM | IC50 [2]: 3 to 10 µM | IC50 [3]: ≤ 3 µM | IC50 [4]: 3 to 10 µM

O=C(NCCCN1CCOCC1)c1ccncc1Nc1ccc(I)cc1F [Example 35, 3-[(2-fluoro-4-iodophenyl)amino]-N-(3-morpholin-4-ylpropyl)-isonicotinamide]
IC50 [1]: < 1 µM | IC50 [2]: ≤ 3 µM | IC50 [3]: ≤ 3 µM | IC50 [4]: ≤ 3 µM

CC(O)CNC(=O)c1ccncc1Nc1ccc(I)cc1F (centres unmarked) [Example 14, 3-[(2-fluoro-4-iodophenyl)amino]-N-(2-hydroxypropyl)-isonicotinamide]
IC50 [1]: < 1 µM | IC50 [2]: ≤ 3 µM | IC50 [3]: ≤ 3 µM | IC50 [4]: ≤ 3 µM

NC(=O)c1ccnc(Cl)c1Nc1ccc(I)cc1F [Example 31, 2-Chloro-3-(2-fluoro-4-iodo-phenylamino)-isonicotinamide]
IC50 [1]: < 1 µM | IC50 [2]: ≤ 3 µM | IC50 [3]: ≤ 3 µM | IC50 [4]: ≤ 3 µM

CN(C)C(=O)c1ccncc1Nc1ccc(I)cc1Cl [Example 23, 3-[(2-chloro-4-iodophenyl)amino]-N-dimethylisonicotinamide]
IC50 [1]: < 1 µM | IC50 [2]: ≤ 3 µM | IC50 [3]: ≤ 3 µM | IC50 [4]: ≤ 3 µM

O=C(NCc1ccc(F)cc1F)c1ccncc1Nc1ccc(I)cc1F [Example 93, N-(2,4-difluorobenzyl)-3-[(2-fluoro-4-iodophenyl)amino]-isonicotinamide]
IC50 [1]: < 1 µM | IC50 [2]: 3 to 10 µM | IC50 [3]: ≤ 3 µM | IC50 [4]: 3 to 10 µM

O=C(NCCc1cccc(Cl)c1)c1ccncc1Nc1ccc(I)cc1F [Example 29, N-[2-(3-chlorophenyl)ethyl]-3-[(2-fluoro-4-iodophenyl)-amino]isonicotinamide]
IC50 [1]: < 1 µM | IC50 [2]: 3 to 10 µM | IC50 [3]: ≤ 3 µM | IC50 [4]: 3 to 10 µM

Cc1ccc(NNC(=O)c2ccncc2Nc2ccc(I)cc2F)cc1 [Example 99, 3-[(2-fluoro-4-iodophenyl)amino]-N′-(4-methylphenyl)isonicotino-hydrazide]
IC50 [1]: < 1 µM | IC50 [2]: 3 to 10 µM | IC50 [3]: ≤ 3 µM | IC50 [4]: 3 to 10 µM

O=C(NOC[C@H](O)CO)c1ccnc(Cl)c1Nc1ccc(I)cc1F [Example 43, 2-Chloro-N-[(2R)-2,3-dihydroxy-propoxy]-3-(2-fluoro-4-iodo-phenylamino)-isonicotinamide]
IC50 [1]: < 1 µM | IC50 [2]: 3 to 10 µM | IC50 [3]: ≤ 3 µM | IC50 [4]: 3 to 10 µM

O=C(NNC(=O)c1n[nH]c2ccccc12)c1ccncc1Nc1ccc(I)cc1F [Example 28, N′-{3-[(2-fluoro-4-iodophenyl)amino]isonicotinoyl}-1H-indazole-3-carbohydrazide]
IC50 [1]: < 1 µM | IC50 [2]: 3 to 10 µM | IC50 [3]: ≤ 3 µM | IC50 [4]: 3 to 10 µM

CCONC(=O)c1ccncc1Nc1ccc(I)cc1Cl [Example 76]
IC50 [1]: < 1 µM | IC50 [2]: 3 to 10 µM | IC50 [3]: ≤ 3 µM | IC50 [4]: 3 to 10 µM

CC(=O)NCCNC(=O)c1ccncc1Nc1ccc(I)cc1Cl [Example 64, N-(2-Acetylamino-ethyl)-3-(2-chloro-4-iodo-phenylamino)-isonicotinamide]
IC50 [1]: < 1 µM | IC50 [2]: 3 to 10 µM | IC50 [3]: ≤ 3 µM | IC50 [4]: 3 to 10 µM

O=C(NC1CC2CCC1C2)c1ccncc1Nc1ccc(I)cc1F (centres unmarked) [Example 82, N-bicyclo[2.2.1]hept-2-yl-3-[(2-fluoro-4-iodophenyl)amino]-isonicotinamide]
IC50 [1]: < 1 µM | IC50 [2]: 3 to 10 µM | IC50 [3]: ≤ 3 µM | IC50 [4]: 3 to 10 µM

O=C(NN1CCOCC1)c1ccncc1Nc1ccc(I)cc1F [Example 25, 3-[(2-fluoro-4-iodophenyl)amino]-N-morpholin-4-ylisonicotin-amide]
IC50 [1]: < 1 µM | IC50 [2]: ≤ 3 µM | IC50 [3]: ≤ 3 µM | IC50 [4]: ≤ 3 µM
